ChEMBL document CHEMBL3638383, “Pyrimidone derivatives” (2015)

The compounds below were run against Glycogen synthase kinase-3 beta splice variant X1 (Bos taurus, UniProt A0A059UE90) (assay: Inhibition Assay: A mixture containing 100 mM MES-sodium hydroxide (pH 6.5), 1 mM magnesium acetate, 0.5 mM EGTA, 5 mM, β-mercaptoethanol, 0.02% Tween 20, 10% glycerol, 12 µg/ml P-GS1, 41.7 µM [γ-^32P] ATP (68 kBq/ml), bovine cerebral TPK1 and a compound shown in Table (a final mixture contained 1.7% DMSO deriving from a solution of a test compound prepared in the presence of 10% DMSO) was used as a reaction system. The phosphorylation was started by adding ATP, and the reaction was conducted at 25° C. for 2 hours, and then stopped by adding 21% perchloric acid on ice cooling. The reaction mixture was centrifuged at 12,000 rpm for 5 minutes and adsorbed on P81 paper (Whatmann), and then the paper was washed four times with 75 mM phosphoric acid, three times with water and once with acetone. The paper was dried, and the residual radioactivity was measured using a liquid scintillation counter.).

IC50 | Compound
108 nM | Cn1c(OCC(=O)c2ccc(Br)cc2)nc(-c2ccncn2)cc1=O
27 nM | Cn1c(OCC(=O)c2ccc(Br)cc2)nc(-c2ccncc2F)cc1=O
20 nM | Cn1c(OCC(=O)c2ccccc2)nc(-c2ccncn2)cc1=O
167 nM | Cn1c(OCC(=O)c2ccc(Br)cc2)nc(-c2ccncc2)cc1=O
